Measured values from publication PMC7762828 (Journal of medicinal chemistry, 2020).

Tests used:
Human recombinant HDAC4 = Human recombinant HDAC4 (Homo sapiens, UniProt P56524); experiment: HDAC4 inhibition assay; type: biochemical; settings: selectivity for HDAC6 over HDAC4
HL60 cells [1] = experiment: Annexin V-propidium iodide apoptosis assay; type: cell-based; settings: HL60, 24 h
leukemia cell lines = experiment: CellTiter-Glo cell viability assay, panel of seven leukemia cell lines; type: cell-based; settings: 72 h, read-out: cell viability IC50
HL60 cells [2] = experiment: Western blot of protein acetylation in HL60 cells; type: cell-based; settings: HL60, 24 h, two concentrations, immunoblot
T-ALL cell line (HSB-2) = experiment: Combinatorial high throughput drug screen; type: cell-based

Sequence of Human recombinant HDAC4 (P56524 whole entry): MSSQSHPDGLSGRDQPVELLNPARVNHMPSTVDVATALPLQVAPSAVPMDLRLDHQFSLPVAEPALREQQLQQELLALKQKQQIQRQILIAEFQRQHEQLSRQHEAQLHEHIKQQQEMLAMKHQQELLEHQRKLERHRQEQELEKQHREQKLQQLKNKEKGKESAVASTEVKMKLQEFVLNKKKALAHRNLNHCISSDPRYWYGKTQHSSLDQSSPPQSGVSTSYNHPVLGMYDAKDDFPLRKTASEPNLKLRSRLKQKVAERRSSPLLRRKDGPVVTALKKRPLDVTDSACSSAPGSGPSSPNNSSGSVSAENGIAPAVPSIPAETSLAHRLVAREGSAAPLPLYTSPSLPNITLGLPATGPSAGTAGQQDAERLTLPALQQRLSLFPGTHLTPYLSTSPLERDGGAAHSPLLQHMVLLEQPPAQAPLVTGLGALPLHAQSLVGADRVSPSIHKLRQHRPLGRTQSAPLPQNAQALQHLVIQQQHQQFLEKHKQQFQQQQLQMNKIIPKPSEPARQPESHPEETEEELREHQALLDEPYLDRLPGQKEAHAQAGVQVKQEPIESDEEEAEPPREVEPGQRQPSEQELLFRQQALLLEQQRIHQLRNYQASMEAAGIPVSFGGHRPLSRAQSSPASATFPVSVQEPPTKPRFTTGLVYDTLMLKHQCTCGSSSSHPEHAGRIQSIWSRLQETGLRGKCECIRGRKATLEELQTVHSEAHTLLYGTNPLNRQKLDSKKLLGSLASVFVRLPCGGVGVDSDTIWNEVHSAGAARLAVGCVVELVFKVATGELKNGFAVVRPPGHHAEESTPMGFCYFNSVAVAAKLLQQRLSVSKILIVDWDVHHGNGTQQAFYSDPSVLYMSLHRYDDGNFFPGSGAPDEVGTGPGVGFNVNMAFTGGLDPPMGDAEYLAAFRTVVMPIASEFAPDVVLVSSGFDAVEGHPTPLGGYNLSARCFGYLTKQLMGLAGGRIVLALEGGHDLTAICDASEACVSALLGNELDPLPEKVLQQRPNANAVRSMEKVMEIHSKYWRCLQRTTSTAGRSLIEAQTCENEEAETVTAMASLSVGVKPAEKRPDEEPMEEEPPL

SI (HDAC4 vs HDAC6) (Human recombinant HDAC4): 1857
IC50 (leukemia cell lines): > 20 µM
Structure (SMILES): O=C(NO)c1ccc(CN(Cc2nnnn2Cc2ccccc2)C(=O)c2ccccc2C(F)(F)F)cc1 [6l]
cytotoxic effect as single agent (number of viable cells) (HL60 cells [1]; 6l alone at 2.5 or 5 μM): no cytotoxic effect
apoptosis induction in combination with BTZ (late apoptotic/dead cells) (HL60 cells [1]; combination with bortezomib (BTZ) versus BTZ alone): augmented the apoptosis induction of BTZ
acetylation status of histone H3 (ac-H3), marker for class I HDAC inhibition (HL60 cells [2]): unaffected
α-tubulin acetylation (ac-α-tubulin), marker for HDAC6 inhibition (HL60 cells [2]): induced α-tubulin acetylation
cytotoxic activity in combination with anthracyclines (T-ALL cell line (HSB-2); HSB-2, 6l […] and 5 μM with epirubicin (Epi) and daunorubicin (Dauno)): significant enhancement of cytotoxic activity
cytotoxicity as single agent (T-ALL cell line (HSB-2); HSB-2, 6l alone): unable to affect the cytotoxicity
